The values below are quoted from earlier work in patent US9700574B2, “Use of secnidazole in treatment of dental infections” (ATHENA PHARMACEUTIQUES SAS, priority 2011, dated 2017).

The conditions of series [1]: in vivo.
Series [2] deals with tested microorganisms. The settings on record: in vitro; oro-dental gel for the periodontal pocket; Drug Development and Industrial Pharmacy 34:1356-1367, 2008.

Regarding `CC[C@H]1OC(=O)[C@H](C)[C@@H](O[C@H]2C[C@@](C)(OC)[C@@H](O)[C@H](C)O2)[C@H](C)[C@@H](O[C@@H]2O[C@H](C)C[C@H](N(C)C)[C@H]2O)[C@](C)(O)C[C@@H](C)CN(C)[C@H](C)[C@@H](O)[C@]1(C)O` [azithromycine], the half-life entry in series [1] is recorded as “about 20 hours”.
Turning to `Cc1ncc([N+](=O)[O-])n1CC(C)O` (stereo not drawn) [secnidazole, alpha-2-dimethyl-5-nitro-1H-imidazole-1-ethanol], the “minimal inhibition concentration for the tested microorganisms” value in series [2] is listed as 0.125-5 μg of secnidazole per ml of gel. In addition, the half-life entry in series [1] is recorded as “about 25 hours”.
